According to ChEMBL document CHEMBL4765362, “Thirty Years of HDAC Inhibitors: 2020 Insight and Hindsight” (J Med Chem, 2020):
pIC50: −log10 of the molar value.

Key:
[1] = molecular target: T1, Histone deacetylase 5 (Homo sapiens, UniProt Q9UQL6); assay: Inhibition of HDAC5 (unknown origin) using HDAC class IIa substrate (trifluoroacetyl-lysine-AMC) as substrate by fluorescent method
[2] = molecular target: T2, Histone deacetylase 4 (Homo sapiens, UniProt P56524); assay: Inhibition of HDAC4 (unknown origin) using HDAC class IIa substrate (trifluoroacetyl-lysine-AMC) as substrate by fluorescent method
T2 sequence (P56524 whole entry): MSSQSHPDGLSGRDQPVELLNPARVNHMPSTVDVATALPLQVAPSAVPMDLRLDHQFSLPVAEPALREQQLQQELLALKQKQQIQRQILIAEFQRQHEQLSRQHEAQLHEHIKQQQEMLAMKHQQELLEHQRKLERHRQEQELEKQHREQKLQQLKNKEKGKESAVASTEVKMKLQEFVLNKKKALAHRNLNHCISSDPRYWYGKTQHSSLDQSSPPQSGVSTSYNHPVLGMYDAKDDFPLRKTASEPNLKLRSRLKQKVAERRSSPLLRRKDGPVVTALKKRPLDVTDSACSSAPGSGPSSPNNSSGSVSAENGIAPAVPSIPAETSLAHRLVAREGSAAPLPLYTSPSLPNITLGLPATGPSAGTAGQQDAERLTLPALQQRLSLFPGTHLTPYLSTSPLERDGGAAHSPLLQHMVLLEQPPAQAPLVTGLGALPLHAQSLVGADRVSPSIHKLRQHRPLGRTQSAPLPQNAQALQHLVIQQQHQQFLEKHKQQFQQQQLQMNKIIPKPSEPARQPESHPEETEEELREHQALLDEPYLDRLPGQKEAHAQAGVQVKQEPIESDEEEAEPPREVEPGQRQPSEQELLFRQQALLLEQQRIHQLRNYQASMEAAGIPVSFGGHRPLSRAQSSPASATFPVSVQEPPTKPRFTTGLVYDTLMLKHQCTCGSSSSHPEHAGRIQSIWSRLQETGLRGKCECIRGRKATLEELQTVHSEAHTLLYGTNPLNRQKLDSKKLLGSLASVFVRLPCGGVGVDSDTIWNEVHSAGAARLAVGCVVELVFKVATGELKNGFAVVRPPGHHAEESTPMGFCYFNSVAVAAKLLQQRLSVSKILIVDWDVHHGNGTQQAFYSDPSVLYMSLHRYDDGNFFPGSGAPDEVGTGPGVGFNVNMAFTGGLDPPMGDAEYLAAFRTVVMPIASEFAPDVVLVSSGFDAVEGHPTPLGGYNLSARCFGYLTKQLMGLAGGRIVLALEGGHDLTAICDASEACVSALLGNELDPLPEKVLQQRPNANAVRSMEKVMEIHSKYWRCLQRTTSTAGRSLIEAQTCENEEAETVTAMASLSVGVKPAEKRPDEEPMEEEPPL

[3] = molecular target: Histone deacetylase 9 (Homo sapiens, UniProt Q9UKV0); assay: Inhibition of HDAC9 (unknown origin) using HDAC class IIa substrate (trifluoroacetyl-lysine-AMC) as substrate by fluorescent method
Histone deacetylase 9, sequence (Q9UKV0 whole entry, the tested form may be a part): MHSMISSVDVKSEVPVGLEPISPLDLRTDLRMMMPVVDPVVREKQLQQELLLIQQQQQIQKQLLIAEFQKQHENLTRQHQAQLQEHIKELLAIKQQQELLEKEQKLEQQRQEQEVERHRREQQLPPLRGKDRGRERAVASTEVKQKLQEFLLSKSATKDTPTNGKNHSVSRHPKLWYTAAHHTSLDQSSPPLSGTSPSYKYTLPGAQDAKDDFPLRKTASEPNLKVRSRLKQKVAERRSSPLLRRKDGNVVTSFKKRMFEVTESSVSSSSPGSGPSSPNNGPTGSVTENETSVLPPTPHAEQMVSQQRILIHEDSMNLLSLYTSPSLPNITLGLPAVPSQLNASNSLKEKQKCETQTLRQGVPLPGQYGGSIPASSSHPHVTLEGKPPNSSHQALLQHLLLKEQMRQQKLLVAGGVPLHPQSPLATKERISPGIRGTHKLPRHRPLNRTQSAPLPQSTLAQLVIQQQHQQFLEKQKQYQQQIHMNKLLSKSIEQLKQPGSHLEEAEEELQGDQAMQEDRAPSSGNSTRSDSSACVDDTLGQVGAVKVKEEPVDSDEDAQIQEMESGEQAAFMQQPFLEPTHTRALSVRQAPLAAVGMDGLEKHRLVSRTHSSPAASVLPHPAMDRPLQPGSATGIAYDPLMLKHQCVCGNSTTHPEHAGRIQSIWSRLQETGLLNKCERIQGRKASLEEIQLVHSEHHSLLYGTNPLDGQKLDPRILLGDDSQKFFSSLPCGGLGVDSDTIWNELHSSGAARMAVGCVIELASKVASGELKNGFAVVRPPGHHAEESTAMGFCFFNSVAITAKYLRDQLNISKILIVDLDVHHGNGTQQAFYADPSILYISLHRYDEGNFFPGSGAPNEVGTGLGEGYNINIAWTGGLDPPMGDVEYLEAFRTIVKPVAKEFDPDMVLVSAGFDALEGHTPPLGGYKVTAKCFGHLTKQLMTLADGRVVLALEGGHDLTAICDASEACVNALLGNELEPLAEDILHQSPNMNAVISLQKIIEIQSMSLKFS

[4] = molecular target: T3, Histone deacetylase 8 (Homo sapiens, UniProt Q9BY41); assay: Inhibition of HDAC8 (unknown origin) using p53 (379 to 382 residues)(RHK(Ac)K(ac)AMC) as substrate by fluorescent method
T3 sequence (Q9BY41 whole entry): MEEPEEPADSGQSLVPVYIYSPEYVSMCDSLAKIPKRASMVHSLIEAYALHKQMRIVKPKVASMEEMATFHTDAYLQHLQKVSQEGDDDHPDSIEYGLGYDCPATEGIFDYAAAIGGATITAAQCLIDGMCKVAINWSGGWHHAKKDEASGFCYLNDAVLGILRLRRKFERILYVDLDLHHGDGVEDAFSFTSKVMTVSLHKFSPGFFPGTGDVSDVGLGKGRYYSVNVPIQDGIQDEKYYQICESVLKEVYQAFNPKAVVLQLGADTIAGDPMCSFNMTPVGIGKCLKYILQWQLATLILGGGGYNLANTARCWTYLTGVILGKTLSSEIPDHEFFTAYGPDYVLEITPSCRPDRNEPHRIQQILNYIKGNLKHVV

[5] = molecular target: T4, Histone deacetylase 11 (Homo sapiens, UniProt Q96DB2); assay: Inhibition of HDAC11 (unknown origin) using p53 (379 to 382 residues)(RHKK(Ac)-AMC) as substrate by fluorescent method
T4 sequence (Q96DB2 whole entry): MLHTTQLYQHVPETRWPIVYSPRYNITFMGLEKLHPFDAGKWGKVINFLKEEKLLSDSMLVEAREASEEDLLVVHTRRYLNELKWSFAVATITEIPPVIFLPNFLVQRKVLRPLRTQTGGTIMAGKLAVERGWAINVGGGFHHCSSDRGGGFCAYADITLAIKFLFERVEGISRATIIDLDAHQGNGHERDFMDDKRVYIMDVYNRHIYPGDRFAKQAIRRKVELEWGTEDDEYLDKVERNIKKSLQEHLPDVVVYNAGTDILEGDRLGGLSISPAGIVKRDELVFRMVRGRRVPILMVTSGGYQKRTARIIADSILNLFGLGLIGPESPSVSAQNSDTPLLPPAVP

[6] = molecular target: T5, Histone deacetylase 7 (Homo sapiens, UniProt Q8WUI4); assay: Inhibition of HDAC7 (unknown origin) using HDAC class IIa substrate (trifluoroacetyl-lysine-AMC) as substrate by fluorescent method
T5 sequence (Q8WUI4 whole entry): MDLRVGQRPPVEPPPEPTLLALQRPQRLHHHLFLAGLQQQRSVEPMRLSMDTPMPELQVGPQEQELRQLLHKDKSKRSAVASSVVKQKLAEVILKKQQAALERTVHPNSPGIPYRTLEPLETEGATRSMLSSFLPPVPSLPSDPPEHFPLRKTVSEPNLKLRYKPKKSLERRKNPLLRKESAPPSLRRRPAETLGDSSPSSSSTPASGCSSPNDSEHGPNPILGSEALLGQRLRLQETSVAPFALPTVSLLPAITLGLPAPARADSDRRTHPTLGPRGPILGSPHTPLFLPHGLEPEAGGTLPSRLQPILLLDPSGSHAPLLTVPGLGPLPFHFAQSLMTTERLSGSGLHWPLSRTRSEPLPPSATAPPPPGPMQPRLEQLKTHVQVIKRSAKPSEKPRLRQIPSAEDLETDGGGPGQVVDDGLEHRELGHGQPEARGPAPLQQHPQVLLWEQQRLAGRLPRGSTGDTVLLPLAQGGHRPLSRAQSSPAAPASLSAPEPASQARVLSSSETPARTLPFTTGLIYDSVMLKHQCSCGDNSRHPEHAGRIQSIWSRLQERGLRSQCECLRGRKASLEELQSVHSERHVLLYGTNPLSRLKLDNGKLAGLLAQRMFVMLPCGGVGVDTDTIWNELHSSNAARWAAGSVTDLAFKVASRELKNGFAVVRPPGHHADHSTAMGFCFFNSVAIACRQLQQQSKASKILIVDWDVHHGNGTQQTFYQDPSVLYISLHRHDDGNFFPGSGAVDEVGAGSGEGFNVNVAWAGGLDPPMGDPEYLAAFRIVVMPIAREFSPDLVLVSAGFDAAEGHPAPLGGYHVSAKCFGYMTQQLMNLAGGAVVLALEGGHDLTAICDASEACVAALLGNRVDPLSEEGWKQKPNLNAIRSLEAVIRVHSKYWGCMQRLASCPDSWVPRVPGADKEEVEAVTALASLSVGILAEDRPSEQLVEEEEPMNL

[7] = molecular target: T5, Histone deacetylase 7; assay: Inhibition of HDAC7 (unknown origin)
[8] = molecular target: T3, Histone deacetylase 8; assay: Inhibition of HDAC8 (unknown origin)
[9] = molecular target: Histone deacetylase 3 (Homo sapiens, UniProt O15379); assay: Inhibition of HDAC3 (unknown origin)
Histone deacetylase 3, sequence (O15379 whole entry): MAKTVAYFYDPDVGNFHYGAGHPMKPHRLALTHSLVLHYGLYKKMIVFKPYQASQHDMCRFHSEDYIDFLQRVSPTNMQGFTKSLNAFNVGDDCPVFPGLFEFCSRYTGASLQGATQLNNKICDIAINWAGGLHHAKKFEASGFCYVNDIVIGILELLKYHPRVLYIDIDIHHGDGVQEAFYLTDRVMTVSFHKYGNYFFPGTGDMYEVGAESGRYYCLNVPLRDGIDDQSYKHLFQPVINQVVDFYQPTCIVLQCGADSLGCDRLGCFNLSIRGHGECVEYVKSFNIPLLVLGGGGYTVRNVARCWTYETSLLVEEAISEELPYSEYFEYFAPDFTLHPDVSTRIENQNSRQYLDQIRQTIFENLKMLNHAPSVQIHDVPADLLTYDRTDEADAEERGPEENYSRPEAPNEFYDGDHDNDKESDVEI

[10] = molecular target: T1, Histone deacetylase 5; assay: Inhibition of HDAC5 (unknown origin)
[11] = molecular target: Histone deacetylase 1 (Homo sapiens, UniProt Q13547); assay: Inhibition of human full length C-terminal Flag tagged HDAC1 expressed in HEK293T cells using H3K9-myristoyl peptide as substrate by HPLC method
Histone deacetylase 1, sequence (Q13547 whole entry): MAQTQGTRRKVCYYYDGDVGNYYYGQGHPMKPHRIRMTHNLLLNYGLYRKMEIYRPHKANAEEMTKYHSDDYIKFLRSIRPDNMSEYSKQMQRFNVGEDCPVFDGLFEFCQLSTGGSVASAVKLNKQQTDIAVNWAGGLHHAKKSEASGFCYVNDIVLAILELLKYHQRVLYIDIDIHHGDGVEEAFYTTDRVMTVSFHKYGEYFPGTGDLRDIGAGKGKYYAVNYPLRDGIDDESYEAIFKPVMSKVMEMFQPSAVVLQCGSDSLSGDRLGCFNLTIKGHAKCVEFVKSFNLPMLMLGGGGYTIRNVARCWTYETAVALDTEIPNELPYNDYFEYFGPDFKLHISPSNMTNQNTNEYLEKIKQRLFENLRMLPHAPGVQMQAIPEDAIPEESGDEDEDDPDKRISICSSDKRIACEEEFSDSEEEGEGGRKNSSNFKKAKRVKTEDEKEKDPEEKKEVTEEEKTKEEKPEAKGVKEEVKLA

[12] = molecular target: T4, Histone deacetylase 11; assay: Inhibition of human full length C-terminal Flag tagged HDAC11 expressed in HEK293T cells assessed as reduction in demyristoylation activity using H3K9-myristoyl peptide as substrate by HPLC method
[13] = molecular target: T2, Histone deacetylase 4; assay: Inhibition of human full length C-terminal Flag tagged HDAC4 expressed in HEK293T cells using H3K9-myristoyl peptide as substrate by HPLC method

T1 sequence (Q9UQL6 whole entry): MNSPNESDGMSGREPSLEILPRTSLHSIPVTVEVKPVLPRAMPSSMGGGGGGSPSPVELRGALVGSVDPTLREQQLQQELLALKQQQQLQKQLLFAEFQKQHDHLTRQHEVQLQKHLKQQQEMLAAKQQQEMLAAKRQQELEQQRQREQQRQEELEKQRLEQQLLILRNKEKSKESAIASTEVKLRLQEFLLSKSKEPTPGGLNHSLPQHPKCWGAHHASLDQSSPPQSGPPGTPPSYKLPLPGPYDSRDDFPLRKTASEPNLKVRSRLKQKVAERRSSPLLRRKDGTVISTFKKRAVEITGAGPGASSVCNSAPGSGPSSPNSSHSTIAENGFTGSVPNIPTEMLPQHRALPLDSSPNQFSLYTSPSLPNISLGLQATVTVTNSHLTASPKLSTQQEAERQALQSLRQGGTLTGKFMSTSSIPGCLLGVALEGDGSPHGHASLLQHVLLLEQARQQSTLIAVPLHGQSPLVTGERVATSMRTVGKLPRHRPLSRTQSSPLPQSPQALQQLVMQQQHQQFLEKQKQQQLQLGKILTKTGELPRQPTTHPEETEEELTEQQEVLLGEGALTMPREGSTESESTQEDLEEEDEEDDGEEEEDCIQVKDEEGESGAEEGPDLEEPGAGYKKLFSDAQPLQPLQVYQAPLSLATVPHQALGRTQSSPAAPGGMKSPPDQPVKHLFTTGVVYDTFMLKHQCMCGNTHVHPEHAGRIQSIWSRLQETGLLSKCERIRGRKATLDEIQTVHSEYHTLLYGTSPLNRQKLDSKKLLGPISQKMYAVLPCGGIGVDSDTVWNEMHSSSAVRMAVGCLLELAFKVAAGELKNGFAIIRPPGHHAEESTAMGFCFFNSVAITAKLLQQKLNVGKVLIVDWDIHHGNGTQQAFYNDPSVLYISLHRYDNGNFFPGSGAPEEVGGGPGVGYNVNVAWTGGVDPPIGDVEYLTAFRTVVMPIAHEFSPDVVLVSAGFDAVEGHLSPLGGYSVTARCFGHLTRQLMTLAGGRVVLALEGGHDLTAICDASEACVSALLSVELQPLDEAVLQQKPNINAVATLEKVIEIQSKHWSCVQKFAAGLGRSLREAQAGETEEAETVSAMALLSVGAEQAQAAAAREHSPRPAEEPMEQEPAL

Row | pIC50 [1] | pIC50 [2] | pIC50 [3] | pIC50 [4] | pIC50 [5] | pIC50 [6] | pIC50 [7] | pIC50 [8] | pIC50 [9] | pIC50 [10] | pIC50 [11] | pIC50 [12] | pIC50 [13] | Structure (SMILES)
1 | < 5.00 | < 5.00 | < 5.00 | < 5.00 | 5.01 | < 5.00 |  |  |  |  |  |  |  | Cn1cc(-c2ccc(S(=O)(=O)n3ccc(/C=C/C(=O)Nc4ccccc4N)c3)cc2)cn1 [DOMATINOSTAT]
2 |  |  |  |  |  |  | < 5.00 | 5.22 | < 5.00 | < 5.00 | < 5.00 | 6.08 | < 5.00 | CCCCCCCCCCCCCCCCNNC(=O)c1cccs1
